Biological target: T1, human μ-opiate receptor (Homo sapiens, UniProt P35372)
T1 construct: purchased Nen company, Zaventem, Belgium RB-HOM; host or cells: CHO-K1 cells (membrane preparation)
Test: Affinity for the human μ-opiate receptor ([3H]-naloxone displacement, SPA, CHO-K1 membrane preparation)
Conditions: test substance 1 μmole/l, displacement of 1 nmole/l [3H]-naloxone, percentage inhibition of the specific binding; for inhibition at 1 µM: read-out: μ-opioid receptor, % inhibition [1 μM]
Outline: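 [3H]-naloxone (1 nmol/l) displacement by SPA with WGA beads, using membranes of CHO-K1 cells expressing the receptor, in 50 mmol/l Tris-HCl with 0.05% azide and 0.06% BSA; 90 min at room temperature. Non-specific binding defined with 25 μmol/l naloxone. Value is % inhibition of specific binding at 1 μmol/l test compound.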

T1 sequence (P35372 whole entry): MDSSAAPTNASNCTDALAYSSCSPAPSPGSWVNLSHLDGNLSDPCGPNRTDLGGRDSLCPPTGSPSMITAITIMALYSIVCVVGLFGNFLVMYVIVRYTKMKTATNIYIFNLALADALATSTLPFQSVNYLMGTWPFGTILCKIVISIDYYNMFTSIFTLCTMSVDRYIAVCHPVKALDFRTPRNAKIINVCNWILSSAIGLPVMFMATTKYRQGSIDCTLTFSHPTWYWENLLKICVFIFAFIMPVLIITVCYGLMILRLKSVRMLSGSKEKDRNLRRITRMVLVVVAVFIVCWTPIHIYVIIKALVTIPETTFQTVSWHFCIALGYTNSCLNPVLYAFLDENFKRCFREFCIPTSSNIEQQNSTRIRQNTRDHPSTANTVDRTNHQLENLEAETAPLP

Question: For `CCN(CC)C(c1nc(Cc2ccccc2)c(N2CCCC(C)C2)o1)C1CCC(C(c2ccc(F)cc2)N(C)C)CC1` (centres unmarked) [compound 36, ([4-benzyl-5-(3-methylpiperidin-1-yl)-oxazol-2-yl]-{4-[dimethylamino-(4-fluorophenyl)-methyl]-cyclohexyl}-methyl)-diethylamine], which inhibition at 1 µM is on record?
Answer: 69%

Question: With `CC1CCN(c2oc(C(C3CCC(C(c4ccc(F)cc4)N(C)C)CC3)N(C)c3ccccc3)nc2Cc2ccccc2)CC1` (centres unmarked) [compound 19, ([4-benzyl-5-(4-methylpiperidin-1-yl)-oxazol-2-yl]-{4-[dimethylamino-(4-fluorophenyl)-methyl]-cyclohexyl}-methyl)-methylphenylamine] as the molecule, how does the inhibition at 1 µM read?
Answer: 63%

Question: `CCN(CC)C(CC1CCC(C(c2ccc(F)cc2)N(C)C)CC1)c1nc(Cc2ccccc2)c(N2CCC(C)CC2)o1` (centres unmarked) [compound 69, (1-[4-benzyl-5-(4-methylpiperidin-1-yl)-oxazol-2-yl]-2-{4-[dimethylamino-(4-fluorophenyl)-methyl]-cyclohexyl}-ethyl)-diethylamine] was tested. Which inhibition at 1 µM did it give?
Answer: 82%

Question: With `CN(C)C(c1cccs1)C1CCC(C(c2nc(Cc3ccccc3)c(N3CCSCC3)o2)N2CCCCC2)CC1` (centres unmarked) [compound 48, ({4-[(4-benzyl-5-thiomorpholin-4-yl-oxazol-2-yl)-piperidin-1-yl-methyl]-cyclohexyl}-thiophen-2-yl-methyl)-dimethylamine] as the molecule, how does the inhibition at 1 µM read?
Answer: 60%

Question: Which inhibition at 1 µM does the source give for `CC1CN(c2oc(C(C3CCC(C(c4cccs4)N(C)C)CC3)N3CCOCC3)nc2Cc2ccccc2)CC(C)O1` (centres unmarked) [compound 141, [(4-{[4-benzyl-5-(2,6-dimethylmorpholin-4-yl)-oxazol-2-yl]-morpholin-4-yl-methyl}-cyclohexyl)-thiophen-2-yl-methyl]-dimethylamine] here?
Answer: 65%

Question: With `CCN(CC)c1oc(C(CC2CCC(C(c3cccs3)N(C)C)CC2)N(CC)CC)nc1Cc1ccccc1` (centres unmarked) [compound 114, (4-benzyl-2-{1-diethylamino-2-[4-(dimethylaminothiophen-2-yl-methyl)-cyclohexyl]-ethyl}-oxazol-5-yl)-diethylamine] as the molecule, how does the inhibition at 1 µM read?
Answer: 94%

Question: Which inhibition at 1 µM does the source give for `COc1ccc(N2CCN(c3oc(C(C4CCC(C(c5ccc(Cl)cc5)N(C)C)CC4)N4CCOCC4)nc3Cc3ccccc3)CC2)cc1` (centres unmarked) [compound 131, [[4-({4-benzyl-5-[4-(4-methoxyphenyl)-piperazin-1-yl]-oxazol-2-yl}-morpholin-4-yl-methyl)-cyclohexyl]-(4-chlorophenyl)-methyl]-dimethylamine] here?
Answer: 64%

Question: With `CCN(CC)C(CC1CCC(C(c2ccc(F)cc2)N(C)C)CC1)c1nc(Cc2ccccc2)c(N2CC(C)CC(C)C2)o1` (centres unmarked) [compound 96, (1-[4-benzyl-5-(3,5-dimethylpiperidin-1-yl)-oxazol-2-yl]-2-{4-[dimethylamino-(4-fluorophenyl)-methyl]-cyclohexyl}-ethyl)-diethylamine] as the molecule, how does the inhibition at 1 µM read?
Answer: 80%

Question: With `CC1CN(c2oc(C(CC3CCC(C(c4cccc(F)c4)N(C)C)CC3)N3CCN(c4ccc(F)cc4)CC3)nc2Cc2ccccc2)CC(C)O1` (centres unmarked) [compound 153, [(4-{2-[4-benzyl-5-(2,6-dimethylmorpholin-4-yl)-oxazol-2-yl]-2-[4-(4-fluorophenyl)-piperazin-1-yl]-ethyl}-cyclohexyl)-(3-fluorophenyl)-methyl]-dimethylamine] as the molecule, how does the inhibition at 1 µM read?
Answer: 71%

Question: `COc1ccc(N2CCN(c3oc(C(CC4CCC(C(c5cccc(F)c5)N(C)C)CC4)N4CCN(c5ccc(OC)cc5)CC4)nc3Cc3ccccc3)CC2)cc1` (centres unmarked) [compound 155, [(4-{2-{4-benzyl-5-[4-(4-methoxyphenyl)-piperazin-1-yl]-oxazol-2-yl}-2-[4-(4-methoxyphenyl)-piperazin-1-yl]-ethyl}-cyclohexyl)-(3-fluorophenyl)-methyl]-dimethylamine] was tested. Which inhibition at 1 µM did it give?
Answer: 82%

Question: With `CCN(CC)c1oc(C(CC2CCC(C(c3ccc(Cl)cc3)N(C)C)CC2)N2CCCCC2)nc1Cc1ccccc1` (centres unmarked) [compound 87, [4-benzyl-2-(2-{4-[(4-chlorophenyl)-dimethylaminomethyl]-cyclohexyl}-1-piperidin-1-yl-ethyl)-oxazol-5-yl]-diethylamine] as the molecule, how does the inhibition at 1 µM read?
Answer: 64%

Question: `COc1ccc(N2CCN(C(CC3CCC(C(c4cccc(F)c4)N(C)C)CC3)c3nc(Cc4ccccc4)c(N4CC(C)OC(C)C4)o3)CC2)cc1` (centres unmarked) [compound 156, [(4-{2-[4-benzyl-5-(2,6-dimethylmorpholin-4-yl)-oxazol-2-yl]-2-[4-(4-methoxyphenyl)-piperazin-1-yl]-ethyl}-cyclohexyl)-(3-fluorophenyl)-methyl]-dimethylamine] was tested. Which inhibition at 1 µM did it give?
Answer: 74%

Question: `CN(Cc1ccccc1)c1oc(C(CC2CCC(C(c3ccc(Cl)cc3)N(C)C)CC2)N2CCCCC2)nc1Cc1ccccc1` (centres unmarked) [compound 58, Benzyl-[4-benzyl-2-(2-{4-[(4-chlorophenyl)-dimethylaminomethyl]-cyclohexyl}-1-piperidin-1-yl-ethyl)-oxazol-5-yl]-methylamine] was tested. Which inhibition at 1 µM did it give?
Answer: 73%

Question: Which inhibition at 1 µM does the source give for `CN(C)C(c1ccc(Cl)cc1)C1CCC(C(c2nc(Cc3ccccc3)c(N3CCCC3)o2)N2CCOCC2)CC1` (centres unmarked) [compound 129, [{4-[(4-benzyl-5-pyrrolidin-1-yl-oxazol-2-yl)-morpholin-4-yl-methyl]-cyclohexyl}-(4-chlorophenyl)-methyl]-dimethylamine] here?
Answer: 75%

Question: How did the inhibition at 1 µM turn out when `CN(C)C(c1cccs1)C1CCC(CC(c2nc(Cc3ccccc3)c(N3CCN(c4ccccc4)CC3)o2)N2CCN(Cc3ccccc3)CC2)CC1` (centres unmarked) [compound 85, ({4-[2-[4-benzyl-5-(4-phenyl-piperazin-1-yl)-oxazol-2-yl]-2-(4-benzyl-piperazin-1-yl)-ethyl]-cyclohexyl}-thiophen-2-yl-methyl)-dimethylamine] was run?
Answer: 91%

Question: Which inhibition at 1 µM does the source give for `CN(C)C(c1cccc(F)c1)C1CCC(C(c2nc(Cc3ccccc3)c(N3CCOCC3)o2)N2CCOCC2)CC1` (centres unmarked) [compound 121, [{4-[(4-benzyl-5-morpholin-4-yl-oxazol-2-yl)-morpholin-4-yl-methyl]-cyclohexyl}-(3-fluorophenyl)-methyl]-dimethylamine] here?
Answer: 67%

Question: For `COc1ccc(N2CCN(c3oc(C(CC4CCC(C(c5cccs5)N(C)C)CC4)N4CCOCC4)nc3Cc3ccccc3)CC2)cc1` (centres unmarked) [compound 159, {[4-(2-{4-benzyl-5-[4-(4-methoxyphenyl)-piperazin-1-yl]-oxazol-2-yl}-2-morpholin-4-yl-ethyl)-cyclohexyl]-thiophen-2-yl-methyl}-dimethylamine], which inhibition at 1 µM is on record?
Answer: 94%

Question: `CC1CN(c2oc(C(C3CCC(C(c4cccs4)N(C)C)CC3)N3CCc4ccccc4C3)nc2Cc2ccccc2)CC(C)O1` (centres unmarked) [compound 148, ({4-[[4-benzyl-5-(2,6-dimethylmorpholin-4-yl)-oxazol-2-yl]-(3,4-dihydro-1H-isoquinolin-2-yl)-methyl]-cyclohexyl}-thiophen-2-yl-methyl)-dimethylamine] was tested. Which inhibition at 1 µM did it give?
Answer: 84%

Question: How did the inhibition at 1 µM turn out when `CC1CC(C)CN(c2oc(C(C3CCC(C(c4cccs4)N(C)C)CC3)N3CCN(Cc4ccccc4)CC3)nc2Cc2ccccc2)C1` (centres unmarked) [compound 53, ({4-[[4-benzyl-5-(3,5-dimethylpiperidin-1-yl)-oxazol-2-yl]-(4-benzyl-piperazin-1-yl)-methyl]-cyclohexyl}-thiophen-2-yl-methyl)-dimethylamine] was run?
Answer: 86%

Question: For `CN(C)C(c1cccs1)C1CCC(C(c2nc(Cc3ccccc3)c(N3CCSCC3)o2)N(C)c2ccccc2)CC1` (centres unmarked) [compound 52, {(4-benzyl-5-thiomorpholin-4-yl-oxazol-2-yl)-[4-(dimethylaminothiophen-2-yl-methyl)-cyclohexyl]-methyl}-methylphenylamine], which inhibition at 1 µM is on record?
Answer: 92%

Question: Which “μ-opioid receptor, % inhibition [1 μM]” value does the source give for `CCN(CC)c1oc(C(CC2CCC(C(c3ccc(F)cc3)N(C)C)CC2)N(C)c2ccccc2)nc1Cc1ccccc1` (centres unmarked) [compound 103, {4-benzyl-2-[2-{4-[dimethylamino-(4-fluorophenyl)-methyl]-cyclohexyl}-1-(methylphenylamine)-ethyl]-oxazol-5-yl}-diethylamine] here?
Answer: 79%

Question: With `CN(Cc1ccccc1)c1oc(C(CC2CCC(C(c3cccs3)N(C)C)CC2)N2CCCCC2)nc1Cc1ccccc1` (centres unmarked) [compound 75, Benzyl-(4-benzyl-2-{2-[4-(dimethylaminothiophen-2-yl-methyl)-cyclohexyl]-1-piperidin-1-yl-ethyl}-oxazol-5-yl)-methylamine] as the molecule, how does the inhibition at 1 µM read?
Answer: 90%

Question: How did the “μ-opioid receptor, % inhibition [1 μM]” value turn out when `CN(CCc1ccccc1)c1oc(C(CC2CCC(C(c3ccc(F)cc3)N(C)C)CC2)N(C)c2ccccc2)nc1Cc1ccccc1` (centres unmarked) [compound 102, {4-benzyl-2-[2-{4-[dimethylamino-(4-fluorophenyl)-methyl]-cyclohexyl}-1-(methylphenylamine)-ethyl]-oxazol-5-yl}-methylphenethylamine] was run?
Answer: 77%

Question: Which inhibition at 1 µM does the source give for `CC1CN(c2oc(C(C3CCC(C(c4cccc(F)c4)N(C)C)CC3)N3CCc4ccccc4C3)nc2Cc2ccccc2)CC(C)O1` (centres unmarked) [compound 128, [{4-[[4-benzyl-5-(2,6-dimethyl-morpholin-4-yl)-oxazol-2-yl]-(3,4-dihydro-1H-isoquinolin-2-yl)-methyl]-cyclohexyl}-(3-fluorophenyl)-methyl]-dimethylamine] here?
Answer: 71%

Question: For `CCN(CC)C(CC1CCC(C(c2cccs2)N(C)C)CC1)c1nc(Cc2ccccc2)c(N2CCC(Cc3ccccc3)CC2)o1` (centres unmarked) [compound 77, {1-[4-benzyl-5-(4-benzyl-piperidin-1-yl)-oxazol-2-yl]-2-[4-(dimethylamino-thiophen-2-yl-methyl)-cyclohexyl]-ethyl}-diethylamine], which inhibition at 1 µM is on record?
Answer: 91%

Question: How did the inhibition at 1 µM turn out when `CCN(CC)C(CC1CCC(C(c2ccc(F)cc2)N(C)C)CC1)c1nc(Cc2ccccc2)c(N2CCSCC2)o1` (centres unmarked) [compound 99, (1-(4-benzyl-5-thiomorpholin-4-yl-oxazol-2-yl)-2-{4-[dimethylamino-(4-fluorophenyl)-methyl]-cyclohexyl}-ethyl)-diethylamine] was run?
Answer: 62%

From patent publication US7608619B2, “Substituted oxazole compounds with analgesic activity” (Gruenenthal GmbH, priority 2005, dated 2009)
